Read-outs that look alike come from different tables or passages of the source.
Key:
[1] = test system: adjuvant arthritis in rats; test: Mycobacterium smegmatis induced adjuvant arthritis in rats (contralateral/left hind paw oedema, systemic phase); type: in vivo, male Lewis rats; conditions: 10 mg/kg i.p.; for inhibition in vivo at 10 mg/kg: Mycolicibacterium smegmatis, ip, left hind paw oedema; for Oedema volume ± S.E., day 18 / Oedema volume ± S.E., day 21 / Oedema volume ± S.E., day 25: left hind paw, systemic phase
Procedure: Mycobacterium smegmatis induced adjuvant arthritis in rats Adjuvant arthritis is induced in groups of 10-30 male Lewis rats, weighing 150 g, by injecting 75 μg of M. smegmatis in 50 μl of mineral oil into the plantar surface of the right hind foot pad. The test compounds are administered at 10 mg/kg i.p.), 5 days a week for 4 weeks, starting on the same day of the mycobacterium injection. The volume of the controlateral (systematic phase) hind foot pad is measured pletismographically on days 18, 21 and 25.

[2] = approximate acute toxicity (LD50) in the mouse, per os, single administration of increasing doses; conditions: in vivo, po, measured on the seventh day after treatment
Description: In view of their high biological activity and low toxicity the compounds of the invention can be safely used in medicine. For example, the approximate acute toxicity (LD50) in the mouse of the compounds 2-cyano-3-(1,4-dihydro-1-phenyl-[1]-benzopyrano[4,3-c]pyrazol-3-yl)-3-oxo- N-phenyl-propanamide, and 2-cyano-3-(1,4-dihydro-1-phenyl-[1]-benzothiopyrano[4,3-c]pyrazol-3-yl)-3- oxo-N-phenyl-propanamide, determined per os with single administration of increasing doses and measured on the seventh day after the day of treatment, is higher than 800 mg/kg. Analogous toxocity data have been found for the other compounds of the invention.

[3] = 432 h, Table 1, day 18, read-out: % inhibition vs. controls, day 18
[4] = 504 h, Table 1, day 21, read-out: % inhibition vs. controls, day 21
[5] = 600 h, Table 1, day 25, read-out: % inhibition vs. controls, day 25
[6] = 432 h, Table 2, day 18, read-out: % inhibition vs. controls, day 18
[7] = 504 h, Table 2, day 21, read-out: % inhibition vs. controls, day 21
[8] = 600 h, Table 2, day 25, read-out: % inhibition vs. controls, day 25

Row | SMILES | inhibition in vivo at 10 mg/kg [1, 3] [%] | inhibition in vivo at 10 mg/kg [1, 4] [%] | inhibition in vivo at 10 mg/kg [1, 5] [%] | Oedema volume ± S.E., day 18 ([1]; Table 1, day 18) [mm^3] | Oedema volume ± S.E., day 21 ([1]; Table 1, day 21) [mm^3] | Oedema volume ± S.E., day 25 ([1]; Table 1, day 25) [mm^3] | LD50 at 168 h [2] [mg/kg] | inhibition in vivo at 10 mg/kg [1, 6] [%] | inhibition in vivo at 10 mg/kg [1, 7] [%] | inhibition in vivo at 10 mg/kg [1, 8] [%] | Oedema volume ± S.E., day 18 ([1]; Table 2, day 18) [mm^3] | Oedema volume ± S.E., day 21 ([1]; Table 2, day 21) [mm^3] | Oedema volume ± S.E., day 25 ([1]; Table 2, day 25) [mm^3]
1 | N#CC(C(=O)Nc1ccccc1)C(=O)c1nn(-c2ccccc2)c2c1CCc1ccccc1-2 (centres unmarked) [FCE 25161, 2-cyano-3-(4,5-dihydro-1-phenyl-[1]-benz[g]indazol-3-yl)-3-oxo-N-phenyl-propanamide] | 50 | 49 | 49 | 665 ± 91 | 675 ± 96 | 685 ± 93 |  |  |  |  |  |  | 
2 | N#CC(C(=O)Nc1ccccc1)C(=O)c1nn(-c2ccccc2)c2c1COc1ccccc1-2 (centres unmarked) [FCE 25158, 2-cyano-3-(1,4-dihydro-1-phenyl-[1]-benzopyrano[4,3-c]pyrazol-3-yl)-3-oxo-N-phenyl-propanamide] |  |  |  |  |  |  | > 800 | 30 | 38 | 41 | 700 ± 198 | 683 ± 174 | 717 ± 182
3 | N#CC(C(=O)Nc1ccc(F)cc1)C(=O)c1nn(-c2ccc(F)cc2)c2c1Cc1ccccc1-2 (centres unmarked) [FCE 26317, 2-cyano-N-(4-fluoro-phenyl)-3-[1-(4-fluoro-phenyl)-1,4-dihydro-indeno[1,2-c]pyrazol-3-yl]-3-oxo-propanamide] |  |  |  |  |  |  |  | 37 | 38 | 44 | 629 ± 347 | 686 ± 393 | 683 ± 417
4 | N#CC(C(=O)NCc1ccccc1)C(=O)c1nn(-c2ccccc2)c2c1CSc1ccccc1-2 (centres unmarked) [FCE 25324, N-benzyl-2-cyano-3-(1,4-dihydro-1-phenyl-[1]-benzothiopyrano [4,3-c]pyrazol-3-yl)-3-oxo-propanamide] | 51 | 57 | 60 | 565 ± 72 | 575 ± 97 | 545 ± 78 |  |  |  |  |  |  | 
5 | N#CC(C(=O)Nc1ccccc1)C(=O)c1nn(-c2ccccc2)c2c1Cc1ccc(F)cc1-2 (centres unmarked) [FCE 26676, 2-cyano-3-(7-fluoro-1,4-dihydro-1-phenyl-indeno[1,2-c]pyrazol-3-yl)-3-oxo-N-phenyl-propanamide] |  |  |  |  |  |  |  | 65 | 54 | 50 | 350 ± 127 | 512 ± 203 | 612 ± 225
6 | N#CC(C(=O)Nc1ccccc1)C(=O)c1nn(-c2ccccc2)c2c1CSc1ccccc1-2 (centres unmarked) [FCE 24578, 2-cyano-3-(1,4-dihydro-1-phenyl-[1]-benzothiopyrano[4,3-c]pyrazol-3-yl)-3-oxo-N-phenyl-propanamide] | 75 | 65 | 68 | 310 ± 180 | 470 ± 215 | 460 ± 241 | > 800 |  |  |  |  |  | 
7 | N#CC(C(=O)Nc1ccccc1)C(=O)c1nn(-c2ccccc2)c2c1Cc1c(CN3CCOCC3)cccc1-2 (centres unmarked) [FCE 26626, 2-cyano-3-(1,4-dihydro-5-morpholinomethyl-1-phenyl-indeno[1,2-c]pyrazol-3-yl)-3-oxo-N-phenyl-propanamide] |  |  |  |  |  |  |  | 57 | 47 | 54 | 425 ± 173 | 587 ± 222 | 562 ± 234
8 | CC(C)(C)OC(=O)c1cccc2c1SCc1c(C(=O)C(C#N)C(=O)Nc3ccccc3)nn(-c3ccccc3)c1-2 (centres unmarked) [FCE 26674, 3-(6-tert-butoxycarbonyl-1,4-dihydro-1-phenyl-[1]-benzothiopyrano[4,3-c]pyrazol-3-yl)-2-cyano-3-oxo-N-phenyl-propanamide] |  |  |  |  |  |  |  | 24 | 40 | 34 | 757 ± 209 | 662 ± 182 | 812 ± 226
9 | N#CC(C(=O)Nc1ccccc1)C(=O)c1nn(-c2ccccc2)c2c1Cc1ccccc1-2 (centres unmarked) [FCE 25276, 2-cyano-3-(1,4-dihydro-1-phenyl-indeno[1,2-c]pyrazol-3-yl)-3-oxo-N-phenyl-propanamide] |  |  |  |  |  |  |  | 41 | 47 | 58 | 587 ± 233 | 587 ± 254 | 512 ± 304

Reference: patent US5196445A, “Heteroaryl-3-oxo-propanenitrile derivatives useful in the treatment of rheumatoid arthritis and other autoimmune diseases” (Farmitalia Carlo Erba Srl, priority 1989, dated 1993)
